Ends that are not written are not given here.
Tested on: guinea pig ileum strips
Assay: Contraction of guinea pig ileum strips in Tyrode's solution
Type: cell-based
Conditions: full contraction; for Activity (amount of peptide per 10 ml of solution to contract fully guinea pig ileum strips): Table I, guinea pig ileum strips with Tyrode's solution; for Ileum Activity (amount of peptide per 10 ml of Tyrode's solution to fully contract a guinea pig ileum strip): Table II

Substance	Activity (amount of peptide per 10 ml of solution to contract fully guinea pig ileum strips) [nmol]	Ileum Activity (amount of peptide per 10 ml of Tyrode's solution to fully contract a guinea pig ileum strip) [nmol]
ASHLGLAR [No. 5, L-Alanyl-L-seryl-L-histidyl-L-leucyl-glycyl-L-leucyl-L-alanyl-L-arginine]	5 to 8	–
Ac-AAALGLAR [CH3 CO--Ala-Ala-Ala-Leu-Gly-Leu-Ala-Arg]	–	7 to 13
Ac-ALGLAR [CH3 CO--Ala-Leu-Gly-Leu-Ala-Arg]	–	19 to 38
Ac-ASHLGLAR [No. 6, CH3 CO--Ala-Ser-His-Leu-Gly-Leu-Ala-Arg]	8 to 12	–
Ac-HLGLAR [CH3 CO--His-Leu-Gly-Leu-Ala-Arg]	–	8 to 17
Ac-LGLAR [CH3 CO--Leu-Gly-Leu-Ala-Arg]	–	36 to 45
